Test results: article PMC11606603, “The membrane domains of mammalian adenylyl cyclases are lipid receptors” (eLife, 2024)
Values joined by “and” are separate entries in the source; they are usually repeats but may differ in a detail not shown here. Equal entries are not always repeated. Where two headings read alike, the source gives them in different places.

What was measured:
[1] = molecular target: T1, HEK293 cells permanently transfected with mAC5 (Homo sapiens, UniProt O95622); test: cAMP accumulation assay, isoproterenol-stimulated HEK-mAC5 cells; format: cell-based
T1 construct: Human mAC genes were from GenScript and fitted with a C-terminal FLAG-tag; FLAG (C); expressed in transfected cells; host or cells: HEK293, permanently transfected
Protocol: (§1) hAC sequences were from NCBI were: ADCY1: NM_021116.3; ADCY2: NM_020546.2; ADCY3: NM_004036.4; ADCY4: NM_001198568.2; ADCY5: NM_183357.2; ADCY6: NM_015270.4; ADCY7: NM_001114.4; ADCY8: NM_001115.2; ADCY9: NM_001116.3. Human mAC genes were from GenScript and fitted with a C-terminal FLAG-tag. […] The gene was synthesized by GenScript. HEK293 cells were maintained in Dulbeccos Modified Eagle Medium (DMEM) with 10% fetal bovine serum at 37°C and 5% CO2. Transfection with AC plasmids was with PolyJet (SignaGen, Frederick, MD, USA). Permanent cell lines were generated by selection for 7 days with 600 µg/ml G418 and maintained with 300 µg/ml For membrane preparation, cells were tyrpsinized, collected by centrifugation (3000 × g, 5 min) and lysed and homogenized in 20 mM HEPES, pH 7.5, 1 mM Ethylenediaminetetraacetic acid (EDTA), 2 mM MgCl2, 1 mM Dithiothreitol (DTT), one tablet of cOmplete, EDTA-free (per 50 ml) and 250 mM sucrose by 20 strokes in a potter homogenizer on ice. Debris was removed (5 min at 1000 × g, 0°C), membranes were collected at 100,000 × g, 60 min at 0°C, suspended and stored at −80°C in 20 mM MOPS, pH 7.5, 0.5 mM EDTA, 2 mM MgCl2. Membrane preparation from mouse brain cortex was according to [Seth et al., 2020]; [Schultz and Schmidt, 1987]. Three cerebral cortices were dissected and homogenized in 4.5 ml cold 48 mM Tris–HCl, pH 7.4, 12 mM MgC1_2, and 0.1 mM Ethylene glycol-bis(β-aminoethyl ether)-N,N,N′,N′-tetraacetic acid (EGTA) with a Polytron hand disperser (Kinematica AG, Switzerland). The homogenate was centrifuged for 15 min at 12,000 × g at 4°C. The pellet was washed once with 5 ml 1 mM KHCO3. The final suspension in 2 ml 1 mM KHCO3 was stored in aliquots at −80°C.
(§2) HEK293 cells stably expressing mAC isoforms 3, 5, and mAC5(membr)_mAC3(cat) were plated at 2500–10,000 cells/well into 384-well plates. […]. Addition of Cisbio HTRF detection reagents stopped the reaction and cAMP levels were determined.

[2] = molecular target: T2, HEK293-mAC5(membr)–AC3(cat) cells (Homo sapiens, UniProt O60266+O95622); test: cAMP accumulation assay, isoproterenol-stimulated HEK-mAC5–3 cells; format: cell-based
T2 construct: followed by AC5(1–402)_AC3(250–631)_AC5(761–1009)_AC3(862–1144); expressed in transfected cells; host or cells: HEK293, stably expressing the chimera
Protocol: as §1, §2

[3] = molecular target: T3, mAC5(membr)–AC3(cat) (Homo sapiens, UniProt O60266+O95622); test: AC assay, Gsα-stimulated chimera mAC5–3 in membranes from transfected HEK293 cells; format: biochemical; conditions: for Effect on Gsα-stimulated mAC5(membr)–AC3(cat) chimera: 300 nM Gsα, 20 µM oleic acid or 100 µM anandamide, in words
T3 construct: followed by AC5(1–402)_AC3(250–631)_AC5(761–1009)_AC3(862–1144); made in house; host or cells: HEK293, transfected; membrane preparation
Protocol: as §1
In a volume of 10 μl, AC activities were measured using 1 mM ATP, 2 mM MgCl2, 3 mM creatine phosphate, 60 μg/ml creatine kinase, and 50 mM MOPS pH 7.5. The cAMP assay kit from Cisbio (Codolet, France) was used for detection according to the supplier’s instructions. For each assay, a cAMP standard curve was established. EC50 and IC50 values were calculated by GraphPad Prism version 8.4.3 for Windows, GraphPad Software, San Diego, CA, USA, https://www.graphpad.com .

[4] = molecular target: T4, mAC9 (Homo sapiens, UniProt O60503); test: AC assay, Gsα-stimulated mAC9 in membranes from transfected HEK293 cells; format: biochemical
T4 construct: Human mAC genes were from GenScript and fitted with a C-terminal FLAG-tag; FLAG (C); made in house; host or cells: HEK293, permanently transfected; membrane preparation
How it was run: (§3)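 EC50 and IC50 values come from cAMP production, read with a Cisbio cAMP kit and converted via a standard curve. Assay mix held 1 mM ATP, 2 mM MgCl2, 3 mM creatine phosphate and 60 μg/ml creatine kinase in 50 mM MOPS pH 7.5, using transfected HEK293 membranes.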

[5] = molecular target: T5, mAC7 (Homo sapiens, UniProt P51828); test: AC assay, Gsα-stimulated mAC7 in membranes from transfected HEK293 cells; format: biochemical
T5 construct: Human mAC genes were from GenScript and fitted with a C-terminal FLAG-tag; FLAG (C); made in house; host or cells: HEK293, permanently transfected; membrane preparation
How it was run: as §3

[6] = 20 µM fatty acid, 300 nM Gsα, single experiments

T4 sequence (O60503 whole entry): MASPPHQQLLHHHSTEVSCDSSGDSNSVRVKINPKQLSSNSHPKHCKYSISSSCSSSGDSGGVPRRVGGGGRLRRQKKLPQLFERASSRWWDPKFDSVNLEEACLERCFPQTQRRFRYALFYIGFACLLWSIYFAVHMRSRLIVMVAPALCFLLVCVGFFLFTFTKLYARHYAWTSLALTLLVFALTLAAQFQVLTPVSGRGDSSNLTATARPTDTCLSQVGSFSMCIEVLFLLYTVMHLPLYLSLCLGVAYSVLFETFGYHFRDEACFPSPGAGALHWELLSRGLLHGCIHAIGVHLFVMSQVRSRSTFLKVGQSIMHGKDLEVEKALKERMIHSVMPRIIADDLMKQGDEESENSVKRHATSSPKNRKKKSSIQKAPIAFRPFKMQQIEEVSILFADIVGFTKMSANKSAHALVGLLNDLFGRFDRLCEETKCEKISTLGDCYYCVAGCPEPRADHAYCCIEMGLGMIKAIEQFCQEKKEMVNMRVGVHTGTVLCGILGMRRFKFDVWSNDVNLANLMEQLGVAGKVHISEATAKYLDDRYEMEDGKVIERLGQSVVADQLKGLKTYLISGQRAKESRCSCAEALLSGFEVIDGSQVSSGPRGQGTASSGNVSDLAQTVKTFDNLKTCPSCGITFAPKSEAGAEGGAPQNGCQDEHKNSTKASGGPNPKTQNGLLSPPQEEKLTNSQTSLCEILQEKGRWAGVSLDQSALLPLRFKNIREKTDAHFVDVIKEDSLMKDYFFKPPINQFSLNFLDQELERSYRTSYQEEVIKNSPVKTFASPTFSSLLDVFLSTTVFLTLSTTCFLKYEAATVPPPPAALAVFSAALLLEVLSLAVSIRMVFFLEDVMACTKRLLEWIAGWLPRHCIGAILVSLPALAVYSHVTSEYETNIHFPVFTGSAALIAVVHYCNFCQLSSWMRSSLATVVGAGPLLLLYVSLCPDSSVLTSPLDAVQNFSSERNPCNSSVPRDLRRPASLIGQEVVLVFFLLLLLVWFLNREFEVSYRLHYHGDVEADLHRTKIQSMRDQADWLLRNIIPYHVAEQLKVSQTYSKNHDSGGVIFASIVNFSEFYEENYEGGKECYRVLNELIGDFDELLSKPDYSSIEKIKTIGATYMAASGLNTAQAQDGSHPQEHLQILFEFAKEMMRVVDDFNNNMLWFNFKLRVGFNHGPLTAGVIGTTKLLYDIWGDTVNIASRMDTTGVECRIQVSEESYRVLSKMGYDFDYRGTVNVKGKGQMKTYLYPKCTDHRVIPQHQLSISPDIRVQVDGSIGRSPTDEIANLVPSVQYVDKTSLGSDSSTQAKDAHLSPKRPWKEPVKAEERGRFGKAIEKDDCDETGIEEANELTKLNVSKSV
T4 sequence (P63092 2-394 Q227L partner): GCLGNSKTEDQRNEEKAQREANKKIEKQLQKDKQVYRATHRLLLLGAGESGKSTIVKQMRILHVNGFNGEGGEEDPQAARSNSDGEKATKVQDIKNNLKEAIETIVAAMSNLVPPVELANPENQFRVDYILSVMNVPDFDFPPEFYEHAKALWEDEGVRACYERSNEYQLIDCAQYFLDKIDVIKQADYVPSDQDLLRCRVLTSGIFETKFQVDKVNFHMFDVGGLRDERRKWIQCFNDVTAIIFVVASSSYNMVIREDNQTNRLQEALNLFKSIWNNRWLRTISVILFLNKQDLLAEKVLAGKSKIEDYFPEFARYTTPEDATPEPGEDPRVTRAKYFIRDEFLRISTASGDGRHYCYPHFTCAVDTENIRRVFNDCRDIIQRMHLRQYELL
T1 sequence (O95622 whole entry): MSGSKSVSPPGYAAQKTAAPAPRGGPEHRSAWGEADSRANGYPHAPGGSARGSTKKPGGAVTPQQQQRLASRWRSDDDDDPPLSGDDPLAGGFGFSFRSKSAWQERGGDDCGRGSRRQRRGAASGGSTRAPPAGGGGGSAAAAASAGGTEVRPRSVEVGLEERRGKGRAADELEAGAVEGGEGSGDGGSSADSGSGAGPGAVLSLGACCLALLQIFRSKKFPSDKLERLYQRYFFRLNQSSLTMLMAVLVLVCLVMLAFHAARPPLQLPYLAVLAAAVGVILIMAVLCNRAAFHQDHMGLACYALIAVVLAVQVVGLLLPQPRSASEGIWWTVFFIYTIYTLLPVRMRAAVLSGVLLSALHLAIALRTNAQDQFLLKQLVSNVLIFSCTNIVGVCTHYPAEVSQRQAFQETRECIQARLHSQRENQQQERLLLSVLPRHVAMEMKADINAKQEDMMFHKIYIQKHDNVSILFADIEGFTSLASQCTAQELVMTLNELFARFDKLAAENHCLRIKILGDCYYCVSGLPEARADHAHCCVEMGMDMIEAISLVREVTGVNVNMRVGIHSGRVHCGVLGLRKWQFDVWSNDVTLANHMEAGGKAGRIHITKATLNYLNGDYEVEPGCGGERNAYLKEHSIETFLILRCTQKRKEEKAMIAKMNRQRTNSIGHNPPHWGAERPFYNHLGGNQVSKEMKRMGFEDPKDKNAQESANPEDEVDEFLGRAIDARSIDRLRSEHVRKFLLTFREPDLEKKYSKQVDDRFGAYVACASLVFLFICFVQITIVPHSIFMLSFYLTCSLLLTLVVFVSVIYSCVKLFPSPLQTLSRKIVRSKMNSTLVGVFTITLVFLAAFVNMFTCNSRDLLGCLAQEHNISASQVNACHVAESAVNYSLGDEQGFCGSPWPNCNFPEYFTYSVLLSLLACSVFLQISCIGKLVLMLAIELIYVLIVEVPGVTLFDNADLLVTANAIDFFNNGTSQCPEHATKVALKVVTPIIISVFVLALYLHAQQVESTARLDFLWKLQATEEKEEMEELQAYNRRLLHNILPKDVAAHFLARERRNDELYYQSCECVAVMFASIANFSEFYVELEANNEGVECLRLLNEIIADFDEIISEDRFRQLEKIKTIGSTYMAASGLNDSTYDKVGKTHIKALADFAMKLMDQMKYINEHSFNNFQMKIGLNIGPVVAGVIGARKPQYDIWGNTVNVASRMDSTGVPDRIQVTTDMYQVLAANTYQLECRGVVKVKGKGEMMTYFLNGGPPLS
T5 sequence (P51828 whole entry): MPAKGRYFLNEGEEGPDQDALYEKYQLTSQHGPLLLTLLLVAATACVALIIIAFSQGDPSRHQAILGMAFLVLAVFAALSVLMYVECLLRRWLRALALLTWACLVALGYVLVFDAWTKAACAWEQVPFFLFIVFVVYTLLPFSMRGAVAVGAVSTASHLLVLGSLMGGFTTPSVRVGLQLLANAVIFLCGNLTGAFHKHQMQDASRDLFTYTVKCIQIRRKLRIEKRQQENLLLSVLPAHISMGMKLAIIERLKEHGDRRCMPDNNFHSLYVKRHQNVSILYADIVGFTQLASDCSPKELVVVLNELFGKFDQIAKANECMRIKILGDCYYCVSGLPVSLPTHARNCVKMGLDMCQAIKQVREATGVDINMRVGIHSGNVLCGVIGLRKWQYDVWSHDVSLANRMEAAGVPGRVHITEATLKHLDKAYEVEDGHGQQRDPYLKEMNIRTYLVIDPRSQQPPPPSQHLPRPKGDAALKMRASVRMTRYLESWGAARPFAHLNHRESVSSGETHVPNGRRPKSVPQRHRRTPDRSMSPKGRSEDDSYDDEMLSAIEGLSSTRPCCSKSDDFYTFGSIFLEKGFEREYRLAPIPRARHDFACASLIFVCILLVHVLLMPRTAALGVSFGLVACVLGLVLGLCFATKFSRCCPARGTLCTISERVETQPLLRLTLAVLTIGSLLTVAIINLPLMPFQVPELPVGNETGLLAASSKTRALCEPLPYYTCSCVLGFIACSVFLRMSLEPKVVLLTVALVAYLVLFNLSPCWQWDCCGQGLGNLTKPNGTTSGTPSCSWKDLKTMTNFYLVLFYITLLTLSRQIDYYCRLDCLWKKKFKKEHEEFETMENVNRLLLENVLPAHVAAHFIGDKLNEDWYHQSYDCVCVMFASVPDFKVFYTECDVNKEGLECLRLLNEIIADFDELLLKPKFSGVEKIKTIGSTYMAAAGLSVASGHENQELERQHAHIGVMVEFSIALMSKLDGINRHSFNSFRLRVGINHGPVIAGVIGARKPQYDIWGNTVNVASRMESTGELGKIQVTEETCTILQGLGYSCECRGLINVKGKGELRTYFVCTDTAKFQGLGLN
T5 sequence (P63092 2-394 Q227L partner): as the sequence (P63092 2-394 Q227L partner) above

CCCCC/C=C\C/C=C\C/C=C\C/C=C\CCCC(=O)NCCO [Anandamide, arachidonoylethanolamide]
IC50 ([1]; 2.5 µM isoproterenol): 133 µM
attenuation of cAMP formation in HEK293-mAC5 cells ([1]; 100 µM anandamide, 2.5 µM isoproterenol): 23%
HEK-mAC activity (%); 100%= 2.5µM Isoproterenol stimulation, HEK-mAC5 ([1]; Anandamide 1 µM): 110% and 105% and 81% and 111% and 118% and 98% and 96% and 86%
HEK-mAC activity (%); 100%= 2.5µM Isoproterenol stimulation, HEK-mAC5 ([1]; Anandamide 3 µM): 110% and 102% and 93% and 132%
HEK-mAC activity (%); 100%= 2.5µM Isoproterenol stimulation, HEK-mAC5 ([1]; Anandamide 10 µM): 108% and 103% and 116% and 87% and 120% and 105% and 102%
HEK-mAC activity (%); 100%= 2.5µM Isoproterenol stimulation, HEK-mAC5 ([1]; Anandamide 30 µM): 98% and 88% and 95% and 102%
HEK-mAC activity (%); 100%= 2.5µM Isoproterenol stimulation, HEK-mAC5 ([1]; Anandamide 60 µM): 95% and 75% and 88% and 93% and 110%
HEK-mAC activity (%); 100%= 2.5µM Isoproterenol stimulation, HEK-mAC5 ([1]; Anandamide 100 µM): 79% and 86% and 94% and 77% and 62% and 71%
activity at 0.1 µM ([1]; HEK293, read-out: HEK-mAC activity (%), 100%= 2.5µM Isoproterenol stimulation, HEK-mAC5, Anandamide 0.1 µM): 100%
activity at 30 µM ([1]; HEK293, read-out: HEK-mAC activity (%), 100%= 2.5µM Isoproterenol stimulation, HEK-mAC5, Anandamide 30 µM): 100%
Effect on basal activity of HEK-mAC5 ([1]; up to 100 µM, data not shown, in words): no effect
attenuation of cAMP formation in HEK293-mAC5(membr)–AC3(cat) cells ([2]; 2.5 µM isoproterenol): 66%
IC50 ([2]; 2.5 µM isoproterenol, +0.5 mM IBMX): 60 µM
activity at 0.1 µM ([2]; read-out: HEK-mAC activity (%), 100%= 2.5µM Isoproterenol stimulation, HEK-mAC5-3, Anandamide 0.1 µM): 100%
activity at 100 µM ([2]; read-out: HEK-mAC activity (%), 100%= 2.5µM Isoproterenol stimulation, HEK-mAC5-3, Anandamide 100 µM): 41%
Effect on Gsα-stimulated mAC5(membr)–AC3(cat) chimera [3]: attenuated
IC50 ([3]; attenuation of 300 nM Gsα-stimulated activity): 29 µM
activity [%] (100% = 300nM Gsα stimulation) ([3]; mAC 5-3, 100µM Anandamide concentration, Figure 9 D): 41% and 69% and 72% and 65% and 48% and 42%
activity [%] (100% = 300nM Gsα stimulation) ([3]; mAC5-3, Anandamide 0.1 µM): 100%
activity [%] (100% = 300nM Gsα stimulation) ([3]; mAC5-3, Anandamide 1 µM): 126% and 93% and 106% and 127% and 130% and 123%
activity [%] (100% = 300nM Gsα stimulation) ([3]; mAC5-3, Anandamide 3 µM): 121% and 102% and 118% and 146% and 144% and 129%
activity [%] (100% = 300nM Gsα stimulation) ([3]; mAC5-3, Anandamide 10 µM): 109% and 100% and 102% and 111% and 132% and 115%
activity [%] (100% = 300nM Gsα stimulation) ([3]; mAC5-3, Anandamide 30 µM): 77% and 70% and 88% and 68% and 74%
activity [%] (100% = 300nM Gsα stimulation) ([3]; mAC5-3, Anandamide 100 µM): 72% and 65% and 48% and 42% and 41% and 69%

CCCCC/C=C\C/C=C\C/C=C\C/C=C\CCCC(=O)O [Arachidonic acid, Arachidonic ((5Z,8Z,11Z,14Z)-eicosatetraenoic) acid]
EC50 [4]: 7.5 µM
mAC9 activity (%);(100% = Gsα stimulation) stimulated by 300nM Gsα ([4]; 1 µM fatty acid, 300 nM Gsα, single experiments): 99% and 60% and 111% and 93%
mAC9 activity (%);(100% = Gsα stimulation) stimulated by 300nM Gsα [4, 6]: 234% and 150% and 190% and 172% and 188% and 135%
mAC9 activity [%] (100% = 300nM Gsα stimulation); 20µM fatty acid concentration [4, 6]: 172% and 188% and 135% and 234% and 150% and 190%

CCCCCCCC/C=C\CCCCCCCC(=O)O [Oleic acid, Oleic ((9Z)-octadecenoic) acid]
Effect of lipid on 300 nM Gsα-stimulated mAC9 ([4]; 20 µM, in words): significantly enhanced
mAC9 activity [%] (100% = 300nM Gsα stimulation) ([4]; Figure 5 B, oleic acid 0.3 µM): 100%
EC50 ([4]; enhancement of 300 nM Gsα-stimulated activity, read-out: EC50 for mAC9): 7.8 µM
Effect of lipid on 300 nM Gsα-stimulated mAC7 ([5]; 20 µM, in words): significantly enhanced
mAC7 activity [%] (100% = 300nM Gsα stimulation) ([5]; Figure 5 B, oleic acid 0.3 µM): 100%
EC50 ([5]; enhancement of 300 nM Gsα-stimulated activity): 6.7 µM
Effect on isoproterenol-stimulated cAMP formation in HEK-mAC5 ([1]; 2.5 µM isoproterenol, in words): unaffected
AC activity (%); 100%= 2.5µM Isoproterenol stimulation ([1]; HEK-mAC5, oleic acid 20 µM): 107% and 100% and 135%
Effect on cAMP formation in HEK293-mAC5(membr)–AC3(cat) cells ([2]; in words, data not shown): ineffective
Effect on Gsα-stimulated mAC5(membr)–AC3(cat) chimera [3]: not enhanced
